In article PMC7322046 (Heliyon, 2020):

Columns and labels:
[1] = test system: human dipeptidyl peptidase IV (DPP4); settings: dipeptides; cited from earlier work
Human recombinant DPP4 = Human recombinant DPP4 (Homo sapiens, UniProt P27487); assay: DPP4 inhibition assay; assay type: biochemical; settings: test tripeptide 10 μg/ml; 100 μM Gly-Pro-AMC, 37 °C, 30 min, pH 8.0
Human recombinant DPP4, sequence (P27487 whole entry): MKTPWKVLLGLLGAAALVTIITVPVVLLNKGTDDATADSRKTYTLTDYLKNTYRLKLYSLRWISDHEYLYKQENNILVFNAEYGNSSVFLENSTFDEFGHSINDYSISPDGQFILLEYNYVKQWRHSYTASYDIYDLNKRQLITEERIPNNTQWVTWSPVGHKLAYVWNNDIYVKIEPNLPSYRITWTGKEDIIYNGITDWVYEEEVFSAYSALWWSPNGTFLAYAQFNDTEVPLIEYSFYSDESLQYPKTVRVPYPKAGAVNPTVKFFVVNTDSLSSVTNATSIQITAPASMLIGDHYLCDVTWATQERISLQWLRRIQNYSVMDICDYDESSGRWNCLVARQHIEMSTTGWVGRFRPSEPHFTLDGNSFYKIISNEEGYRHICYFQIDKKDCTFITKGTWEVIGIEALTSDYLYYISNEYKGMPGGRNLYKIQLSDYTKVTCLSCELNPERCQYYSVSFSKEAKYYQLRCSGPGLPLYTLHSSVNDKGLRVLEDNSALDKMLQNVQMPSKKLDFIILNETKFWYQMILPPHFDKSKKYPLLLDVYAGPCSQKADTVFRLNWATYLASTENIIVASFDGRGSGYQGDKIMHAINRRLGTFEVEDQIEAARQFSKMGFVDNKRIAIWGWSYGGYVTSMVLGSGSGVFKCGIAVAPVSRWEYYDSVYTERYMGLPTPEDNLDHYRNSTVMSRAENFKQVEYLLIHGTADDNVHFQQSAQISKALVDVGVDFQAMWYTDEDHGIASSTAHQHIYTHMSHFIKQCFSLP

Row | inhibition ratio (Human recombinant DPP4) | Substance | DPP4 inhibitory activity (in words) [1]
1 |  | Ile-Pro | high inhibitory activity
2 |  | Val-Pro | high inhibitory activity
3 | 31.0% | Val-Pro-Leu [VPL] | 
